What was measured:
Experiment in all cases: selective drug sensitivity score (sDSS, relative to normal bone marrow) (sDSS (score)); higher = more potent and effective on the cell line relative to normal bone marrow cells
Settings in all cases: 72 h
COG-LL-394h = system: COG-LL-394h
MHH-CALL-2 = system: MHH-CALL-2
SEM cells = system: SEM cells
MHH-CALL-4 = system: MHH-CALL-4
CCRF-CEM = system: CCRF-CEM
MOLT-4 = system: MOLT-4
KOPN-8 = system: KOPN-8
KARPAS-45 = system: KARPAS-45
ALL-SIL = system: ALL-SIL
RPMI-8402 = system: RPMI-8402
NALL-1 = system: NALL-1
TMD5 = system: TMD5
PEER = system: PEER
697 = system: 697
ALL-PO = system: ALL-PO
P12-ICHIKAWA = system: P12-ICHIKAWA
MOLT-14 = system: MOLT-14
MOLT-16 = system: MOLT-16
MN-60 = system: MN-60
LC4-1 = system: LC4-1
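Also: ALL cell lines in 384-well plates, five doses spanning 10,000-fold, each plate scaled between vehicle and 100 µmol/L benzalkonium chloride controls, sDSS an adapted area-under-curve metric.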

Row | SMILES | selective drug sensitivity score (COG-LL-394h) | selective drug sensitivity score (MHH-CALL-2) | selective drug sensitivity score (SEM cells) | selective drug sensitivity score (MHH-CALL-4) | selective drug sensitivity score (CCRF-CEM) | selective drug sensitivity score (MOLT-4) | selective drug sensitivity score (KOPN-8) | selective drug sensitivity score (KARPAS-45) | selective drug sensitivity score (ALL-SIL) | selective drug sensitivity score (RPMI-8402) | selective drug sensitivity score (NALL-1) | selective drug sensitivity score (TMD5) | selective drug sensitivity score (PEER) | selective drug sensitivity score 697 | selective drug sensitivity score (ALL-PO) | selective drug sensitivity score (P12-ICHIKAWA) | selective drug sensitivity score (MOLT-14) | selective drug sensitivity score (MOLT-16) | selective drug sensitivity score (MN-60) | selective drug sensitivity score (LC4-1)
1 | CC[C@]1(O)C[C@H]2CN(CCc3c([nH]c4ccccc34)[C@@](C(=O)OC)(c3cc4c(cc3OC)N(C)[C@H]3[C@@](O)(C(=O)OC)[C@H](OC(C)=O)[C@]5(CC)C=CCN6CC[C@]43[C@@H]65)C2)C1 [Vinblastine] (top concentration 1000 nM) | -0.1 | -3.2 | 10.8 | -5.6 | -1.5 | -3.5 | 12.8 | -4.2 | 5.2 | 1.6 | -3.8 | -4.9 | -0.9 | 12.5 | 7.2 | -3.5 | -2.5 | 0.7 | -2.4 | 13.6
2 | CC[C@]1(O)C[C@H]2CN(CCc3c([nH]c4ccccc34)[C@@](C(=O)OC)(c3cc4c(cc3OC)N(C=O)[C@H]3[C@@](O)(C(=O)OC)[C@H](OC(C)=O)[C@]5(CC)C=CCN6CC[C@]43[C@@H]65)C2)C1 [Vincristine] (top concentration 1000 nM) | 3.92 | 5.52 | 12.7 | -2.28 | 4.42 | 4.02 | 15.8 | 5.92 | 13.1 | 4.72 | -0.88 | -0.08 | 6.82 | 17 | 8.32 | 4.52 | 7.72 | 9.52 | -1.58 | 16.7
3 | FC(F)c1nc2ccccc2n1-c1nc(N2CCOCC2)nc(N2CCOCC2)n1 [ZSTK474] (top concentration 10000 nM) | 0.86 | 11.4 | 5.66 | 7.46 | 9.36 | 7.26 | 11.9 | 5.96 | 2.46 | 5.86 | 1.96 | -1.04 | -3.64 | 8.46 | 10.5 | 3.66 | -4.14 | 6.46 | 0.36 | -0.44

Source: the supplement of paper PMC8967900
